Data from patent US20230357269A1 (LES LABORATOIRES SERVIER, priority 2020, published 2023).

target: human recombinant LRRK2 protein (Homo sapiens (Human), UniProt Q5S007); test: LRRK2 Kinase Activity Assay (ADP-Glo); type: biochemical; conditions: LRRK2 wt; LRRKtide peptide and ATP substrates; 1h-incubation at 37° C.
Outline: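 Recombinant human LRRK2 acted on LRRKtide peptide and ATP for 1 h at 37 °C. ADP formed was detected by ADP-Glo luminescence (ATP depletion, then ADP-to-ATP conversion and luciferase). IC50s came from curve fits over 10 concentrations (N=2).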

Chain of human recombinant LRRK2 protein (Q5S007 whole entry): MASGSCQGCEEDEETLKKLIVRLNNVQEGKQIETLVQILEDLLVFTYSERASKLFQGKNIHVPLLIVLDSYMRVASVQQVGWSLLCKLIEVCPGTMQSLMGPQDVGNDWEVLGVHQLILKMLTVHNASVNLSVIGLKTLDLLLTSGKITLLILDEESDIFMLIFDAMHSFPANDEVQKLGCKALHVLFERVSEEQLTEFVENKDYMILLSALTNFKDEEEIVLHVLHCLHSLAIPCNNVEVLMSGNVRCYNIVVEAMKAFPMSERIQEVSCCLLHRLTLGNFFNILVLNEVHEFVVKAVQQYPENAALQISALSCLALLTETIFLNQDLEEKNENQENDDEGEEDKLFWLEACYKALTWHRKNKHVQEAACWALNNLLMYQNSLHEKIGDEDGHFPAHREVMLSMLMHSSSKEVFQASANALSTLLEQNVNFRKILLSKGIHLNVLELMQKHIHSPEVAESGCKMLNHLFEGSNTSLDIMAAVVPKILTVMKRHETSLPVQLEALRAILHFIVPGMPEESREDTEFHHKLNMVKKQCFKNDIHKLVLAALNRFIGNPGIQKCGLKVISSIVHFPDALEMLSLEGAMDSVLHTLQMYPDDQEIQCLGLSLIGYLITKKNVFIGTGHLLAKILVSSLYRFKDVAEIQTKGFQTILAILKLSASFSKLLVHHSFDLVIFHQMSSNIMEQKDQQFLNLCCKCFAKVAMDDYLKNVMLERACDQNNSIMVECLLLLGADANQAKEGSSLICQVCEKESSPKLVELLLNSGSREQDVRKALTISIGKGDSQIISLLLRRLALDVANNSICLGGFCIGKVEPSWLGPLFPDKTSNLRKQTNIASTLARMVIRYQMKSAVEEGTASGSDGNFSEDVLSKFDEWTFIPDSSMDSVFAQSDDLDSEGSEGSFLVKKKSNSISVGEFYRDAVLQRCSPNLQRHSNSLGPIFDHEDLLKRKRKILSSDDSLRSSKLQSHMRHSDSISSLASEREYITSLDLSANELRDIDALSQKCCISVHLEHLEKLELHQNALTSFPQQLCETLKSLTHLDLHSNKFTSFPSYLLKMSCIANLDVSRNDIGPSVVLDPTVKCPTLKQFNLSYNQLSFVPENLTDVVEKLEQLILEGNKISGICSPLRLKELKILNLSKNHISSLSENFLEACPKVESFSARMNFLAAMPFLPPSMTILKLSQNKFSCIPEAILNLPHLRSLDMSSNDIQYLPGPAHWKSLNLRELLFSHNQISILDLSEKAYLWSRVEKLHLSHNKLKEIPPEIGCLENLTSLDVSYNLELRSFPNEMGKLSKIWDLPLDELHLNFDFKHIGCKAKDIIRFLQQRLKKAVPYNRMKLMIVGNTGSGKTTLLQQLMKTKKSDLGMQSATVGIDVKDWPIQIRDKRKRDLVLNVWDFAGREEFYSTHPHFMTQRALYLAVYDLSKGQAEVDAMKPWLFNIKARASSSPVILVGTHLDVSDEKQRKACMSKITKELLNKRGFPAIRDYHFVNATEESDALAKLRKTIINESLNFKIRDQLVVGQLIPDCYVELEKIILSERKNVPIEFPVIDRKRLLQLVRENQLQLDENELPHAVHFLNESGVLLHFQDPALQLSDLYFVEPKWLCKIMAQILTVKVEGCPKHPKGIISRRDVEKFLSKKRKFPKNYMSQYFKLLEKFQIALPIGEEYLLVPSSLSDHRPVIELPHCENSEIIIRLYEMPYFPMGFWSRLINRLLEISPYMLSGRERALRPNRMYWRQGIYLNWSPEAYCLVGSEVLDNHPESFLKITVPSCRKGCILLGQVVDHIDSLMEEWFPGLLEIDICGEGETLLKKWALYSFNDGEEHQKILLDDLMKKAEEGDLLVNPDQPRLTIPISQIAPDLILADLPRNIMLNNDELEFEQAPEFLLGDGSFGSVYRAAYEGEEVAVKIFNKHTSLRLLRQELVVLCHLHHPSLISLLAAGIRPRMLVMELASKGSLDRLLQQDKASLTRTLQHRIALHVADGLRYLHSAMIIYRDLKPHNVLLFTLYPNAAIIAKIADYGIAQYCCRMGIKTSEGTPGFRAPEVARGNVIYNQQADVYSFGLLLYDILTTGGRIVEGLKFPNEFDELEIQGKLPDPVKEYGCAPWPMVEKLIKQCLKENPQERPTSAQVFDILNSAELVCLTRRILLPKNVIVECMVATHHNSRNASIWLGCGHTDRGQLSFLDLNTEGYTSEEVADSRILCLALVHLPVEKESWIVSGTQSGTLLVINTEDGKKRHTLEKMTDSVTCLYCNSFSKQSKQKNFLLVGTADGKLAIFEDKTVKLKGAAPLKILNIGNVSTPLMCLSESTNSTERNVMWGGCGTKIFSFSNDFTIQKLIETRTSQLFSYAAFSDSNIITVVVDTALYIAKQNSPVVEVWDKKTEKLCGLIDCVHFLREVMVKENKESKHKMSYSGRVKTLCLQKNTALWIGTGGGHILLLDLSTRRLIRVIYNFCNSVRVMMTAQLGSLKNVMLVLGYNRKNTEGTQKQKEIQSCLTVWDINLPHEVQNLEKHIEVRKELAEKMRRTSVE

Row | SMILES | IC50 [nM]
1 | CC1Cn2cc(cn2)-c2n[nH]c3ccc(cc23)O[C@H](C)CCNC(=O)O1 (stereo partly drawn) [Example 113, (13R)-7,13-dimethyl-8,14-dioxa-4,5,10,19,20-pentaazatetracyclo[13.5.2.1^2,5.0^18,21]tricosa-1(20),2(23),3,15(22),16,18(21)-hexaen-9-one] | < 10
2 | C[C@@H]1CCNC(=O)OCc2cccc(n2)-c2n[nH]c3ccc(cc23)O1 [Example 114, (13R)-13-methyl-8,14-dioxa-10,19,20,23-tetraazatetracyclo[13.5.2.1^2,6.0^18,21]tricosa-1(20),2,4,6(23),15,17,21-heptaen-9-one] | < 10
3 | C[C@@H]1CCNC(=O)OCc2cc(ccn2)-c2n[nH]c3ccc(cc23)O1 [Example 117, (13R)-13-methyl-8,14-dioxa-5,10,19,20-tetraazatetracyclo[13.5.2.1^2,6.0^18,21]tricosa-1(20),2,4,6(23),15,17,21-heptaen-9-one] | < 10
4 | O=C1NCCCOc2ccc3[nH]nc(c3c2)-c2cnn(c2)C(C2CCOCC2)CO1 (centres unmarked) [Example 118, 6-(oxan-4-yl)-8,14-dioxa-4,5,10,19,20-pentaazatetracyclo[13.5.2.1^2,5.0^18,21]tricosa-1(20),2(23),3,15,17,21-hexaen-9-one] | 100 to 1000
5 | CCC1CC2=NN1CCOC(=O)NCCCOc1ccc3[nH]nc2c3c1 (centres unmarked) [Example 119, 4-ethyl-8,14-dioxa-5,10,19,20,23-pentaazatetracyclo[13.5.2.1^2,5.0^18,21]tricosa-1(20),2(23),15,17,21-pentaen-9-one] | 10 to 100
6 | C[C@@H]1CCNC(=O)OCc2cccc(c2F)-c2n[nH]c3ccc(cc23)O1 [Example 120, (13R)-23-fluoro-13-methyl-8,14-dioxa-10,19,20-triazatetracyclo[13.5.2.1^2,6.0^18,21]tricosa-1(20),2,4,6(23),15,17,21-heptaen-9-one] | 100 to 1000
7 | O=C1NCCOc2ccc3[nH]nc(c3c2)-c2cnn(c2)CCCO1 [Example 121, 9,14-dioxa-4,5,11,19,20-pentaazatetracyclo[13.5.2.1^2,5.0^18,21]tricosa-1(20),2(23),3,15,17,21-hexaen-10-one] | 100 to 1000
8 | CCc1cc2nn1CCOC(=O)NCCCOc1ccc3[nH]nc-2c3c1 [Example 122, 4-ethyl-8,14-dioxa-5,10,19,20,23-pentaazatetracyclo[13.5.2.1^2,5.0^18,21]tricosa-1(20),2(23),3,15,17,21-hexaen-9-one] | < 10
9 | O=C1NCCCOc2ccc3[nH]nc(c3c2)-c2cc(no2)CCCO1 [Example 123, 3,9,15-trioxa-4,11,20,21-tetraazatetracyclo[14.5.2.1^2,5.0^19,22]tetracosa-1(21),2(24),4,16,18,22-hexaen-10-one] | < 10
10 | C[C@@H]1CCNC(=O)OCc2cncc(c2)-c2n[nH]c3cc(F)c(cc23)O1 [Example 124, (13R)-16-fluoro-13-methyl-8,14-dioxa-4,10,19,20-tetraazatetracyclo[13.5.2.1^2,6.0^18,21]tricosa-1(20),2,4,6(23),15,17,21-heptaen-9-one] | < 10
11 | C[C@@H]1CCNC(=O)OCc2cc(Cl)cc(n2)-c2n[nH]c3ccc(cc23)O1 [Example 125, (13R)-4-chloro-13-methyl-8,14-dioxa-10,19,20,23-tetraazatetracyclo[13.5.2.1^2,6.0^18,21]tricosa-1(20),2(23),3,5,15(22),16,18(21)-heptaen-9-one] | < 10
12 | O=C1NCCCOc2ccc3[nH]nc(c3c2)-n2cnc(c2)CCO1 [Example 126, 8,14-dioxa-2,4,10,19,20-pentaazatetracyclo[13.5.2.1^2,5.0^18,21]tricosa-1(20),3,5(23),15(22),16,18(21)-hexaen-9-one] | 10 to 100
13 | COc1cc2nc(c1)-c1n[nH]c3ccc(cc13)O[C@H](C)CCNC(=O)OC2 [Example 127, (13R)-4-methoxy-13-methyl-8,14-dioxa-10,19,20,23-tetraazatetracyclo[13.5.2.1^2,6.0^18,21]tricosa-1(20),2,4,6(23),15,17,21-heptaen-9-one] | < 10
14 | C[C@@H]1CCNC(=O)OCc2cc(ccc2C#N)-c2n[nH]c3ccc(cc23)O1 [Example 128, (13R)-13-methyl-9-oxo-8,14-dioxa-10,19,20-triazatetracyclo[13.5.2.1^2,6. 0^18,21]tricosa-1(20),2,4,6(23),15,17,21-heptaene-5-carbonitrile] | < 10
15 | C[C@@H]1CCNC(=O)OCc2nc(cc(N3CCCC3)n2)-c2n[nH]c3ccc(cc23)O1 [Example 129, (13R)-13-methyl-4-(pyrrolidin-1-yl)-8,14-dioxa-5,10,19,20,23-pentaaza tetracyclo[13.5.2.1^2,6.0^18,21]tricosa-1(20),2,4,6(23),15,17,21-heptaen-9-one] | < 10
16 | C[C@@H]1CCNC(=O)OCc2cccc(c2)-c2n[nH]c3cc(F)c(cc23)O1 [Example 132, (13R)-16-fluoro-13-methyl-8,14-dioxa-10,19,20-triazatetracyclo[13.5.2.1^2,6.0^18,21]tricosa-1(20),2,4,6(23),15,17,21-heptaen-9-one] | < 10

Row | SMILES | IC50 [nM]
17 | C[C@@H]1CCNC(=O)OCc2cncc(n2)-c2n[nH]c3ccc(cc23)O1 [Example 133, (13R)-13-methyl-8,14-dioxa-4,10,19,20,23-pentaazatetracyclo[13.5.2.1^2,6.0^18,21]tricosa-1(20),2,4,6(23),15,17,21-heptaen-9-one] | < 10
18 | O=C1NCCCOc2ccc3[nH]nc(c3c2)-c2csc(n2)CCO1 [Example 134, 8,14-dioxa-4-thia-10,19,20,23-tetraazatetracyclo[13.5.2.1^2,5.0^18,21]tricosa-1(20),2,5(23),15,17,21-hexaen-9-one] | < 10
19 | O=C1NCCCOc2ccc3[nH]nc(c3c2)-c2nc(cs2)CCO1 [Example 135, 8,14-dioxa-3-thia-10,19,20,23-tetraazatetracyclo[13.5.2.1^2,5.0^18,21]tricosa-1(20),2(23),4,15,17,21-hexaen-9-one] | < 10
20 | C[C@@H]1CCNC(=O)O[C@H](C)c2cccc(n2)-c2n[nH]c3ccc(cc23)O1 [Example 136, (7R,13R)-7,13-dimethyl-8,14-dioxa-10,19,20,23-tetraazatetracyclo[13.5.2.1^2,6.0^18,21]tricosa-1(20),2,4,6(23),15,17,21-heptaen-9-one] | < 10
21 | CO[C@@H]1CCN(c2cc3nc(n2)COC(=O)NCC[C@@H](C)Oc2ccc4[nH]nc-3c4c2)C1 [Example 137, (13R)-4-[(3R)-3-methoxypyrrolidin-1-yl]-13-methyl-8,14-dioxa-5,10,19,20,23-pentaazatetracyclo[13.5.2.1^2,6.0^18,21]tricosa-1(20),2,4,6(23),15,17,21-heptaen-9-one] | < 10
22 | C[C@@H]1CCNC(=O)OCc2cccc(c2)-c2n[nH]c3cc(Cl)c(cc23)O1 [Example 138, (13R)-16-chloro-13-methyl-8,14-dioxa-10,19,20-triazatetracyclo[13.5.2.1^2,6.0^18,21]tricosa-1(20),2,4,6(23),15,17,21-heptaen-9-one] | < 10
23 | Cc1cc2[nH]nc3c2cc1O[C@H](C)CCNC(=O)OCc1cccc-3c1 [Example 139, (13R)-13,16-dimethyl-8,14-dioxa-10,19,20-triazatetracyclo[13.5.2.1^2,6.0^18,21]tricosa-1(20),2,4,6(23),15,17,21-heptaen-9-one] | < 10
24 | C[C@@H]1CCNC(=O)OCc2ccnc(n2)-c2n[nH]c3ccc(cc23)O1 [Example 140, (13R)-13-methyl-8,14-dioxa-3,10,19,20,23-pentaazatetracyclo[13.5.2.1^2,6.0^18,21]tricosa-1(20),2,4,6(23),15,17,21-heptaen-9-one] | 10 to 100
25 | O=C1NCCCNc2ccc3[nH]nc(c3c2)-c2cccc(c2)CO1 [Example 141, 8-oxa-10,14,19,20-tetraazatetracyclo[13.5.2.1^2,6.0^18,21]tricosa-1(20),2(23), 3,5,15(22),16,18(21)-heptaen-9-one] | 100 to 1000
26 | O=C1NCCCCc2ccc3[nH]nc(c3c2)-c2cccc(c2)CO1 [Example 142, 8-oxa-10,19,20-triazatetracyclo[13.5.2.1^2,6.0^18,21]tricosa-1(20),2(23),3,5, 15(22),16,18(21)-heptaen-9-one] | < 10
27 | COc1ncc2cc1COC(=O)NCC[C@@H](C)Oc1ccc3[nH]nc-2c3c1 [Example 143, (13R)-5-methoxy-13-methyl-8,14-dioxa-4,10,19,20-tetraazatetracyclo[13.5.2.1^2,6.0^18,21]tricosa-1(20),2,4,6(23),15,17,21-heptaen-9-one] | < 10
28 | C[C@@H]1CCNC(=O)OCc2cc(c[nH]c2=O)-c2n[nH]c3ccc(cc23)O1 [Example 144, (13R)-13-methyl-8,14-dioxa-4,10,19,20-tetraazatetracyclo[13.5.2.1^2,6.0^18,21]tricosa-1(20),2,6(23),15,17,21-hexaene-5,9-dione] | < 10
29 | Cn1nc2cc1CCOC(=O)NCCCOc1ccc3[nH]nc-2c3c1 [Example 145, 4-methyl-8,14-dioxa-3,4,10,19,20-pentaazatetracyclo[13.5.2.1^2,5.0^18,21]tricosa-1(20),2,5(23),15(22),16,18(21)-hexaen-9-one] | 100 to 1000
30 | C[C@@H]1CCNC(=O)OCc2cccc(n2)-c2n[nH]c3cc(F)c(cc23)O1 [Example 146, (13R)-16-fluoro-13-methyl-8,14-dioxa-10,19,20,23-tetraazatetracyclo[13.5.2.1^2,6.0^18,21]tricosa-1(20),2,4,6(23),15,17,21-heptaen-9-one] | < 10
31 | O=C1NCCCOc2ccc3[nH]nc(c3c2)-c2csc(n2)CO1 [Example 147, 7,13-dioxa-4-thia-9,18,19,22-tetraazatetracyclo[12.5.2.1^2,5.0^17,20]docosa-1(19),2,5(22),14(21),15,17(20)-hexaen-8-one] | < 10
32 | Cc1cc2nc(n1)COC(=O)NCC[C@@H](C)Oc1ccc3[nH]nc-2c3c1 [Example 148, (13R)-4,13-dimethyl-8,14-dioxa-5,10,19,20,23-pentaazatetracyclo[13.5.2. 1^2,6.0^18,21]tricosa-1(20),2(23),3,5,15(22),16,18(21)-heptaen-9-one] | < 10
